Test results taken from US20140221354A1, “IMIDAZO [1,2-a]PYRIDINE COMPOUNDS FOR USE IN THERAPY” (EMBLEM Technology Transfer GmbH, priority 2011, published 2014).
pEC50: −log10 of the molar value.

Each compound was assayed on CellSensor® HRE-bla HCT-116 stably transfected reporter cell line (assay: HIF/HRE reporter assay). Conditions: Homo sapiens, inhibition of activated HIF signaling response, hypoxic conditions induced with deferoxamine (DFO), 24 h incubation, blue/green emission ratio, read-out: Evaluation.
Assay type: cell-based
Method: Inhibition of an activated HIF signaling response under chemically-induced hypoxic conditions due to compound treatment was determined using the CellSensor® HRE-bla HCT-116 stably transfected reporter cell line from Invitrogen according to the manufacturer's instructions.
Cells were maintained as described previously and seeded into 384-well, clear-bottom plates (Corning 3712) at 15000 cells/well in 32 μl assay medium (Opti-MEM [Invitrogen], 0.5% FBS, 100 U/ml penicillin, 100 μg/ml streptomycin, 0.1 mM non-essential amino acids [NEAA], 1 mM sodium pyruvate, 5 mM HEPES [pH 7.3]). Following a 2 h incubation period, compounds (4 μl) were subsequently added to the cells at 10× concentrations in 5% DMSO and incubated under normal conditions for 30 min. To induce hypoxic conditions, 4 μl of a 2 mM deferoxamine (DFO) solution was added to the cells followed by 24 h incubation under standard assay conditions (as described). Control wells included wells containing only medium (no cells) and wells treated with 0.5% DMSO instead of compound.
Prior to the readout, the Substrate Loading Solution was prepared as described in the manufacturer's protocol and 10 μl added to each well. Following a further 2 h incubation period at room temperature and in the dark, fluorescence was measured at two wavelengths (blue channel: ex. 409 nm, em. 460 nm; green channel: ex. 409 nm, em. 530 nm) on a PerkinElmer Envision HTS. For the analysis, the average signal of the cell-free wells at 460 nm and 530 nm was first subtracted from the blue and green channel data, respectively. The blue/green emission ratios were then calculated for each well, dividing the background-corrected blue emission values by the background-corrected green emission values. […] values were determined from these ratios using GraphPad Prism (Prism 5, GraphPad software, Inc.).

Row | pEC50 | SMILES
1 | > 6.30 | CN1CCCN(Cc2c(-c3ccc(C#N)s3)nc3ccc(-c4ccccc4)cn23)CC1 [Example 36, 5-(3-((4-methyl-1,4-diazepan-1-yl)methyl)-6-phenylimidazo[1,2-a]pyridin-2-yl)thiophene-2-carbonitrile]
2 | < 6.00 | N#Cc1ccc(-c2nc3ccc(-c4cn[nH]c4)cn3c2CN2CCCNCC2)cc1 [Example 37, 4-(3-((1,4-diazepan-1-yl)methyl)-6-(1H-pyrazol-4-yl)imidazo[1,2-a]pyridin-2-yl)benzonitrile]
3 | 6.00 to 6.30 | Cn1cccc1-c1ccc2nc(-c3ccc(C#N)cc3)c(CN3CCCNCC3)n2c1 [Example 38, 4-(3-((1,4-diazepan-1-yl)methyl)-6-(1-methyl-1H-pyrrol-2-yl)imidazo[1,2-a]pyridin-2-yl)benzonitrile]
4 | < 6.00 | N#Cc1ccc(-c2nc3ccc(-c4cnco4)cn3c2CN2CCCNCC2)cc1 [Example 39, 4-(3-((1,4-diazepan-1-yl)methyl)-6-(oxazol-5-yl)imidazo[1,2-a]pyridin-2-yl)benzonitrile]
5 | > 6.30 | N#Cc1ccc(-c2nc3ccc(-c4ccc(Cl)cc4)cn3c2CN2CCCNCC2)cc1 [Example 40, 4-(3-((1,4-diazepan-1-yl)methyl)-6-(4-chlorophenyl)imidazo[1,2-a]pyridin-2-yl)benzonitrile]
6 | > 6.30 | COc1ccc(-c2ccc3nc(-c4ccc(C#N)cc4)c(CN4CCCNCC4)n3c2)cc1 [Example 41, 4-(3-((1,4-diazepan-1-yl)methyl)-6-(4-methoxyphenyl)imidazo[1,2-a]pyridin-2-yl)benzonitrile]
7 | < 6.00 | N#Cc1ccc(-c2nc3ccc(-c4ccc(C(N)=O)cc4)cn3c2CN2CCCNCC2)cc1 [Example 42, 4-(3-((1,4-diazepan-1-yl)methyl)-2-(4-cyanophenyl)imidazo[1,2-a]pyridin-6-yl)benzamide]
8 | > 6.30 | N#Cc1ccc(-c2ccc3nc(-c4ccc(C#N)cc4)c(CN4CCCNCC4)n3c2)cc1 [Example 43, 4,4′-(3-((1,4-diazepan-1-yl)methyl)imidazo[1,2-a]pyridine-2,6-diyl)dibenzonitrile]
9 | > 6.30 | N#Cc1ccc(-c2nc3ccc(-c4ccsc4)cn3c2CN2CCCNCC2)cc1 [Example 44, 4-(3-((1,4-diazepan-1-yl)methyl)-6-(thiophen-3-yl)imidazo[1,2-a]pyridin-2-yl)benzonitrile]
